One data set deals with T1, DNA topoisomerase I (Homo sapiens, UniProt P11387).
T1 sequence (P11387 1-765): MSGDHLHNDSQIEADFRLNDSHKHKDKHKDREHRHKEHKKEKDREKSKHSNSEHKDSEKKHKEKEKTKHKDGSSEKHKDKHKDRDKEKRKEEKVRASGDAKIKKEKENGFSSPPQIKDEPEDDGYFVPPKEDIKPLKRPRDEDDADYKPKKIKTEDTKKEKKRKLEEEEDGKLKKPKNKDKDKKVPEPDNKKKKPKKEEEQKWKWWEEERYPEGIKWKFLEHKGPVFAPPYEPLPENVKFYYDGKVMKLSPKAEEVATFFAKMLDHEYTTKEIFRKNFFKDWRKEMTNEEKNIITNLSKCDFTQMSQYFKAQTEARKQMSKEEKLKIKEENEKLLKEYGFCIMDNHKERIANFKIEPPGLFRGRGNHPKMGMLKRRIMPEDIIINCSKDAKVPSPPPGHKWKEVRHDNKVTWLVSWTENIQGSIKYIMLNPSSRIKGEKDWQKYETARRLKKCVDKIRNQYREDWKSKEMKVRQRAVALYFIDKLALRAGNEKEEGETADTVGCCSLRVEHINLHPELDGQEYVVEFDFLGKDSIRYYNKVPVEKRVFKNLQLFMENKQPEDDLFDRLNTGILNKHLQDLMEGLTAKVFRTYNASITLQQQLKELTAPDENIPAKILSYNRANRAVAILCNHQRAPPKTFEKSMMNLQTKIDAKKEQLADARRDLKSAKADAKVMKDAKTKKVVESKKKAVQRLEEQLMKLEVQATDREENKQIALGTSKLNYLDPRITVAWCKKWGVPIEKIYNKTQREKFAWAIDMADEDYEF
The data set is described as follows: topoisomerase I-mediated DNA relaxation assay (cell-free). Type of data set: biochemical. As to conditions: read-out: DNA topoisomerase I inhibition (IC50). The text has this: SKB264 is a TROP2-targeting ADC, which consists of a recombinant humanized anti-TROP2 antibody and a topoisomerase I inhibitor derived from Belotecan (KL610023), integrated together via a sulfonyl pyrimidine-CL2A-carbonate linker. The payload is conjugated with the antibody through irreversible nucleophilic aromatic substitution by tris (2-carboxyethyl) phosphine hydrochloride (TCEP HCl), a reducing agent that can reduce the interchain disulfide bounds. The drug-to-antibody ratio (DAR) of SKB264 was approximately 7.4, which was determined by the reversed-phase chromatography (RPC), and might be the theoretical maximum drug loading number for conventional interchain cysteine conjugation ( Figure 1B ). SKB264 was designed to release payload KL610023 after internalization by TROP2-expressing tumor cells. The inhibitory effect of KL610023 on topoisomerase I was almost similar to that of SN-38, as measured by a topoisomerase I-mediated DNA relaxation assay ( Figure 1C ).
Figure 1 Structure and characterization of SKB264. […] (B) The distribution of the conjugated drug determined by the reverse-phase chromatography analysis (L-0: Unconjugated light chain, L-1: Light chain conjugated with one payload, H-0: Unconjugated heavy chain, H-1: Heavy chain conjugated with one payload, H-2: Heavy chain conjugated with two payloads, H-3: Heavy chain conjugated with three payloads). […]

Another data set concerns NCI-N87 (TROP2+). The data set is described as follows: cytotoxic assay (CellTiter-Glo, 72 h) NCI-N87. Type of data set: cell-based. Conditions: Homo sapiens, read-out: IC50 cell growth inhibition. As to the method:
(§1) Tumor cells were seeded on 96-well plates at the following concentrations: HCC1806 (3,000 cells per well), NCI-N87 (5,000 cells per well), BxPC-3 (2,000 cells per well), Calu-3 (8,000 cells per well), NCI-H23 (TROP2+, 3,000 cells per well), and NCI-H23 (parental, 3,000 cells per well). After overnight incubation, the diluted testing items were added respectively. After 72 h, cell viability was evaluated using a CellTiter-Glo Luminescent Cell Viability Assay (Promega Corp. Madison, WI), following the manufacturer’s instruction.

A further data set has as its system BXPC3 (TROP2+). Briefly: cytotoxic assay (CellTiter-Glo, 72 h) BxPC-3. Type of data set: cell-based. As to conditions: Homo sapiens, read-out: IC50 cell growth inhibition. How it is done: as §1
The test system of another data set is Calu-3 (TROP2+). Briefly: cytotoxic assay (CellTiter-Glo, 72 h) Calu-3. The data set is classed as cell-based. Conditions: Homo sapiens, read-out: IC50 cell growth inhibition. How it is done:
as §1

The test system of another data set is NCI-H23(TROP2+). The data set is described as follows: cytotoxic assay (CellTiter-Glo, 72 h) NCI-H23 (TROP2+). Type of data set: cell-based. Conditions: Homo sapiens, read-out: IC50 cell growth inhibition. As to the method: as §1
A short description of data set [1]: PK of SKB264 and KL610023 in cynomolgus monkeys (serum). Type of data set: in vivo. Conditions: unconjugated KL610023 0.24 mg/kg single i.v. infusion, n = 6, mean ± SD. As to the method:
The PK properties of SKB264 and Tab were determined by ELISA, for which the lower limit of quantitation was 7.813 ng/ml. The serum concentration of KL610023 was measured by a validated liquid chromatography tandem mass spectrometry (LC/MS-MS), for which the lower limit of quantitation was 0.100 ng/ml. A total of 24 cynomolgus monkeys were randomized into four groups (n = 3/sex/group). Groups #1, #2, and #3 were treated with 1, 3, and 10 mg/kg of SKB264, respectively, via 15 min i.v. infusion once. Group #4 received 0.24 mg/kg of unconjugated KL610023 via i.v. infusion once. The serum concentrations of SKB264, Tab, and KL610023 were continually measured up to 672 h post-dose.
Phoenix WinNonlin 8.1 was used to calculate the PK parameters in the non-compartment model, including t 1/2, T max, C max, AUC0-t, and AUC0-∞. […] The half maximal effective concentration (EC50) and half maximal inhibitory concentration (IC50) were calculated using a nonlinear regression model with sigmoidal fitting. The in vitro antitumor activities of drugs were evaluated by a two-tailed paired t-test.

Data set [2] can be described thus: payload KL610023 PK in plasma of cynomolgus monkey (Table 5). Type of data set: in vivo. Further details: Vz_obs / Cl_obs: unit not given here. Conditions: KL610023 administered, n=4, dose not given. The text has this: Since the metabolism of ADC is different from that of the toxic payload ([30], [31]), the linkage of SKB264 mAb can dramatically prolong the half-life of KL610023 as compared to KL610023 alone. Nevertheless, after being released from SKB264, KL610023 could be rapidly eliminated. […] Overall, the proprietary technology used in our study to construct SKB264 could ensure a more precise delivery process.

Data set [3] is described as follows: metabolic related experiments (hepatic circulation). As to conditions: unlike SN-38.
Where [4] appears, read: both sexes, cynomolgus monkey, in vivo, iv.

Consider `CC[C@@]1(O)C(=O)OCc2c1cc1n(c2=O)Cc2c-1nc1ccccc1c2CCN(C(C)C)S(C)(=O)=O` [KL610023], for which the IC50 at DNA topoisomerase I came to 700 nM; with NCI-N87 (TROP2+), 2.01 nM; in the data set with BXPC3 (TROP2+) it was 6 nM; in the data set with Calu-3 (TROP2+), 1.36 nM; in the data set on NCI-H23(TROP2+), 4.77 nM. Besides, the half-life in data set [1] (both sexes, cynomolgus monkey, in vivo, iv, 0.24 mg/kg) is 5.7 h; in data set [2] it was 1.6 h. Besides, the AUC(0-inf) in data set [1] (setting [4]) stood at 230 ± 43.9 ng·h/mL; in data set [2], 97 ± 26.9 ng·h/mL. The AUC(0-t) is 228 ± 44.2 ng·h/mL in data set [1] (setting [4]) and 97 ± 26.7 ng·h/mL in data set [2]. Also, the “t 1/2” value in data set [1] (0.24 mg/kg) was 5.65 ± 2.53 h. The Cl_obs in data set [2] turned out to be 535 ± 148. For the same molecule, in data set [2], the highest level (Cmax) was 273 ± 54.4 ng/mL. Further, the Vz_obs in data set [2] was 1119 ± 548. Moreover, the hepatic circulation entry in data set [3] is given as “no hepatic circulation”.

(Values after publication PMC9817100, “Preclinical profiles of SKB264, a novel anti-TROP2 antibody conjugated to topoisomerase inhibitor, demonstrated promising antitumor efficacy compared to IMMU-132” (Frontiers in Oncology, 2022).)
